Test [1] concerns RPMI 8402 cells. Particulars: ref [21], cited from earlier work. An excerpt:
(§1) Table 2 Relative cytotoxic activities. IC50 values (μM) ^a. | column: RPMI 8402 || The development of G-quadruplex stabilizers as a potential new class of anticancer agents hinges on the ability to design compounds that stabilize only G-quadruplexes and not other nucleic acid structures such as duplex or triplex DNA [15]. While a diverse array of compounds have been reported to stabilize G-quadruplex DNA [1], most also have some ability to stabilize duplex DNA. The natural product telomestatin for example, is reported to stabilize G-quadruplex DNA with 70:1 selectivity over duplex DNA [16, 17]. In contrast, the synthetic macrocyclic hexaoxazole HXDV (Figure 1) demonst ...

For test [2], the system named is Salmon testes (ST) duplex DNA. The settings on record: change in transition temperature of ST duplex DNA; ref [21]; cited from earlier work. An excerpt: Table 1 Effect of various pyridyl polyoxazoles on the thermal stabilities of duplex and quadruplex DNA. | column: Salmon Testes Duplex DNA / ΔTtran (°C) ^a
Test [3] has as its system human telomeric sequence d[T2G3(T2AG3)3A] (hTel) quadruplex DNA. Particulars: change in transition temperature of hTel quadruplex DNA; ref [21]; cited from earlier work. The procedure: Table 1 Effect of various pyridyl polyoxazoles on the thermal stabilities of duplex and quadruplex DNA. | column: hTel -Quadruplex DNA / ΔTtran (°C)^a || The results observed with the hTel quadruplex DNA however, stand in stark contrast with the ST duplex DNA results. In the series of three 4-phenyl substituted analogs compound 8 and 11 strongly stabilize G-quadruplex DNA by 20.5 and 24.6 °C respectively. Compound 8 has the tertiary amine directly connected to the phenyl while in 11 the amine is separated from the phenyl ring by two methylene groups. In contrast, the 3-dimethylaminopropyl analog 12 stabilizes G-quadruplex DNA to a much lesser extent. When the side-chain is attached to the 5-position of the phenyl ring the results are quite dram ...

The test system of test [4] is human breast cancer xenograft (MDA-MB-435). The settings on record: MDA-MB-435 xenograft in athymic nude mice; ref [21]; cited from earlier work. An excerpt:
(§2) The development of G-quadruplex stabilizers as a potential new class of anticancer agents hinges on the ability to design compounds that stabilize only G-quadruplexes and not other nucleic acid structures such as duplex or triplex DNA [15]. While a diverse array of compounds have been reported to stabilize G-quadruplex DNA [1], most also have some ability to stabilize duplex DNA. The natural product telomestatin for example, is reported to stabilize G-quadruplex DNA with 70:1 selectivity over duplex DNA [16, 17]. In contrast, the synthetic macrocyclic hexaoxazole HXDV (Figure 1) demonst ...

Test [5] deals with KB3-1 cells. The settings on record: ref [21], cited from earlier work.
Excerpt: as §1, with “KB3-1 wt.” for “RPMI 8402”

The next test concerns several tumor cell lines. Particulars: ref [18],[20]; read-out: average IC50 towards several tumor cell lines; cited from earlier work.
Excerpt: as §2

Test [6] concerns KB3-1 cells. In words: MTT cytotoxicity assay, KB3-1. Format: cell-based, human. The settings on record: continuous exposure for four days, means of at least two determinations ± standard deviation, read-out: IC50, KB3-1 wt. On the procedure: (§3) Each N,N-dimethylamino-substituted macrocycle was also evaluated for cytotoxic activity against a human lymphoblastoma RPMI 8402 and a human epidermoid carcinoma KB3-1 cell line (Table 2). The results from these assays are informative about the relationship of structure to cytotoxic activity among the PyPX macrocyclic G-quadruplex stabilizers. […] An explanation for this observation is not clear at this time. The three-carbon analogs 12 and 22 have nearly equivalent activity at both positions, but these longer-chain analogs are generally lower in activity than the two-carbon analogs. Attachment of the dimethylamino group directly to the phenyl ring (8 and 19) leads to compounds having the greatest cytotoxic potency at their respective points of attachment. […] In general analogs that have an even number (0 or 2) of methylene spacer groups are more cytotoxic than those with an odd number. […] Moving the side-chain away from the phenyl ring and onto an oxazole ring also fails to improve cytotoxic activity.
(§4) Cytotoxicity was determined using the MTT-microtiter plate tetrazolinium assay (MTA). The human lymphoblast RPMI 8402 cell line was provided by Dr. Toshiwo Andoh (Aichi Cancer Center Research Institute, Nagoya, Japan). The KB3-1 cell line was obtained from K.V. Chin (The Cancer Institute of New Jersey, New Brunswick, NJ, USA). The cytotoxicity assay was performed using 96-well microtiter plates. Cells were grown in suspension at 37 °C in 5% CO2 and maintained by regular passage in RPMI medium supplemented with 10% heat inactivated fetal bovine serum, L-glutamine (2 mM), penicillin (100 U/mL), and Streptomycin (0.1 mg/mL). For determination of IC50 values, cells were exposed continuously for four days to varying concentrations of drug, and MTT assays were performed at the end of the fourth day. […] All assays were performed at least twice in six replicate wells.

Test [7] deals with RPMI 8402 cells. Nature of the test: MTT cytotoxicity assay, RPMI 8402. The settings on record: continuous exposure for four days, means of at least two determinations ± standard deviation. The test is classed as cell-based, human. The procedure: as §3, §4

SMILES strings stand for the structures. “And” between values parts separate entries of the source, which are not always exact repeats. Equal entries are not always repeated. Where two headings read alike, the source gives them in different places. Marks after values point to notes of the source that are not given here.

Regarding `CN(C)CCc1cc2cc(c1)CNC(=O)c1coc(n1)-c1coc(n1)-c1cccc(n1)-c1nc(co1)-c1nc(co1)C(=O)NC2` [Compound 2], the half-maximal inhibitory concentration (IC50) with RPMI 8402 cells [1] (range given for analogs 1 and 2 together, read-out: IC50 against RPMI 8402 cells) is 90 to 180 nM; in the test with RPMI 8402 cells [1] (read-out: IC50, RPMI 8402) it was 180 nM; in the test with KB3-1 cells [5] (range given for analogs 1 and 2 together, read-out: IC50 against KB3-1 cells), 30 to 40 nM; in the test on KB3-1 cells [5] (read-out: IC50, KB3-1 wt.) it was 40 nM. In addition, the “ΔTtran, salmon testes duplex DNA” value in test [2] is 0 ^b °C. Moreover, the “ΔTtran, hTel quadruplex DNA” value in test [3] was 20.5 °C and 20.5 ^b °C. The “%T/C (average tumor volumes of treated/control animals)” value in test [4] is 27.7%.
As to `CC(C)[C@@H]1NC(=O)c2coc(n2)-c2coc(n2)-c2coc(n2)[C@H](C(C)C)NC(=O)c2coc(n2)-c2coc(n2)-c2coc1n2` [HXDV, reference compound], in test [2], the “ΔTtran, salmon testes duplex DNA” value was 0 ^b °C. The 50% inhibitory concentration (IC50) in the test with several tumor cell lines is 500 nM; in the test with KB3-1 cells [6] it was 350 ± 80 nM; in the test with RPMI 8402 cells [7], 540 ± 120 nM.

Source of the values: publication PMC3949622, “Macrocyclic Pyridyl Polyoxazoles: Structure-Activity Studies of the Aminoalkyl Side-Chain on G-Quadruplex Stabilization and Cytotoxic Activity” (Molecules, 2013).
